Tests used:
Test in all cases: relative viability (nuclei count vs DMSO), 5 days (fraction); higher = more cells survive
AZD8055 + Linsitinib = compound: COc1ccc(-c2ccc3c(N4CCOC[C@@H]4C)nc(N4CCOC[C@@H]4C)nc3n2)cc1CO [AZD8055] + C[C@]1(O)C[C@@H](c2nc(-c3ccc4ccc(-c5ccccc5)nc4c3)c3c(N)nccn32)C1 [Linsitinib] (partner 1 µM)
How it was run: (§1)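 Lung cancer cell lines were pin-tool dosed in 1536-well plates on the day after seeding, with either a lone drug or a fixed anchor-drug dose plus five library-drug doses (not always all listed) in √10 steps. Nuclei were counted on 4× images after 5 days. Relative viability is the ratio of treated-well to vehicle-well nuclei counts, with each value a median of duplicate plates.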

AZD8055 + Pictilisib = compound: COc1ccc(-c2ccc3c(N4CCOC[C@@H]4C)nc(N4CCOC[C@@H]4C)nc3n2)cc1CO [AZD8055] + CS(=O)(=O)N1CCN(Cc2cc3nc(-c4cccc5[nH]ncc45)nc(N4CCOCC4)c3s2)CC1 [Pictilisib] (partner 1 µM)
How it was run: as §1

AZD8055 + Alpelisib = compound: COc1ccc(-c2ccc3c(N4CCOC[C@@H]4C)nc(N4CCOC[C@@H]4C)nc3n2)cc1CO [AZD8055] + Cc1nc(NC(=O)N2CCC[C@H]2C(N)=O)sc1-c1ccnc(C(C)(C)C(F)(F)F)c1 [Alpelisib] (partner 2 µM)
How it was run: as §1

AZD8055 + Decitabine = compound: COc1ccc(-c2ccc3c(N4CCOC[C@@H]4C)nc(N4CCOC[C@@H]4C)nc3n2)cc1CO [AZD8055] + Nc1ncn([C@H]2C[C@H](O)[C@@H](CO)O2)c(=O)n1 [Decitabine] (partner 2 µM)
How it was run: as §1

| Cell Line | relative viability (AZD8055 + Linsitinib; first compound 0.01 µM) | relative viability (AZD8055 + Linsitinib; first compound 0.03162 µM) | relative viability (AZD8055 + Linsitinib; first compound 0.1 µM) | relative viability (AZD8055 + Linsitinib; first compound 0.3162 µM) | relative viability (AZD8055 + Linsitinib; first compound 1 µM) | relative viability (AZD8055 + Pictilisib; first compound 0.01 µM) | relative viability (AZD8055 + Pictilisib; first compound 0.03162 µM) | relative viability (AZD8055 + Pictilisib; first compound 0.1 µM) | relative viability (AZD8055 + Pictilisib; first compound 0.3162 µM) | relative viability (AZD8055 + Pictilisib; first compound 1 µM) | relative viability (AZD8055 + Alpelisib; first compound 0.01 µM) | relative viability (AZD8055 + Alpelisib; first compound 0.03162 µM) | relative viability (AZD8055 + Alpelisib; first compound 0.1 µM) | relative viability (AZD8055 + Alpelisib; first compound 0.3162 µM) | relative viability (AZD8055 + Alpelisib; first compound 1 µM) | relative viability (AZD8055 + Decitabine; first compound 0.01 µM) | relative viability (AZD8055 + Decitabine; first compound 0.03162 µM) | relative viability (AZD8055 + Decitabine; first compound 0.1 µM) | relative viability (AZD8055 + Decitabine; first compound 0.3162 µM) | relative viability (AZD8055 + Decitabine; first compound 1 µM) |
| --- | --- | --- | --- | --- | --- | --- | --- | --- | --- | --- | --- | --- | --- | --- | --- | --- | --- | --- | --- | --- |
| HCC-827 | 0.97 | 0.971 | 0.932 | 0.794 | 0.469 | 1.1 | 0.875 | 0.741 | 0.495 | 0.477 | 0.974 | 0.863 | 0.736 | 0.305 | 0.254 | 0.329 | 0.279 | 0.278 | 0.262 | 0.23 |
| HCC-78 | 0.442 | 0.355 | 0.222 | 0.195 | 0.177 | 0.216 | 0.218 | 0.164 | 0.178 | 0.164 | 0.303 | 0.204 | 0.181 | 0.217 | 0.221 | 0.729 | 0.437 | 0.564 | 0.381 | 0.412 |
| NCI-H2085 | 0.956 | 0.744 | 0.566 | 0.289 | 0.274 | 0.458 | 0.394 | 0.347 | 0.319 | 0.346 | 0.896 | 0.758 | 0.575 | 0.382 | 0.372 | 0.576 | 0.512 | 0.379 | 0.456 | 0.426 |
| PC-14 | 1.03 | 0.944 | 0.669 | 0.526 | 0.211 | 0.587 | 0.452 | 0.294 | 0.184 | 0.113 | 0.977 | 0.913 | 0.795 | 0.316 | 0.155 | 0.288 | 0.227 | 0.238 | 0.186 | 0.159 |
| NCI-H2342 |  |  |  |  |  |  |  |  |  |  |  |  |  |  |  | 0.741 | 0.653 | 0.668 | 0.668 | 0.504 |
| A-427 | 1.13 | 0.95 | 0.927 | 0.783 | 0.547 | 0.747 | 0.684 | 0.677 | 0.501 | 0.507 | 1.22 | 0.999 | 0.939 | 0.674 | 0.519 | 0.552 | 0.491 | 0.494 | 0.415 | 0.389 |
| H3255 | 0.925 | 0.858 | 0.63 | 0.468 | 0.277 | 0.518 | 0.45 | 0.249 | 0.277 | 0.272 | 0.683 | 0.657 | 0.499 | 0.275 | 0.322 | 0.535 | 0.568 | 0.48 | 0.316 | 0.281 |
| HCC-44 | 0.565 | 0.506 | 0.298 | 0.198 | 0.226 | 0.447 | 0.396 | 0.376 | 0.267 | 0.347 | 0.573 | 0.507 | 0.417 | 0.271 | 0.295 | 0.971 | 0.849 | 0.812 | 0.8 | 0.735 |
| NCI-H1734 | 0.857 | 0.638 | 0.457 | 0.289 | 0.262 | 0.427 | 0.312 | 0.295 | 0.175 | 0.199 | 0.762 | 0.554 | 0.378 | 0.226 | 0.23 | 0.551 | 0.344 | 0.433 | 0.299 | 0.234 |

Reference: the supplement of paper PMC10307832
